# Measurements reported in ChEMBL document CHEMBL1138648, “Synthesis of new N-(2-(trifluoromethyl)pyridin-4-yl)anthranilic acid derivatives and their evaluation as anticancer agents” (2004).
# Legend:
# Format in all cases: functional
# NCI-H460 [1] = assay: In vitro percent of proliferation of vehicle treated NCI-H460 human lung cell lines was determined at 0.0010 M concentration
# SF-268 [2] = assay: In vitro percent of proliferation of vehicle treated SF-268 human CNS cell lines was determined at 0.0010 M concentration
# MCF7 [3] = assay: In vitro percent of proliferation of vehicle treated MCF-7 human breast cell lines was determined at 0.0010 M concentration
# M14 = assay: Growth inhibitory activity against Melanoma M14 cell line was determined; settings: Homo sapiens
# K562 = assay: Growth inhibitory activity against Leukemia K-562 cell line was determined; settings: Homo sapiens
# MOLT-4 = assay: Growth inhibitory activity against Leukemia MOLT-4 cell line was determined; settings: Homo sapiens
# UACC-62 = assay: Growth inhibitory activity against Melanoma UACC-62 cell line was determined; settings: Homo sapiens
# SF-268 [4] = assay: Growth inhibitory activity against CNS cancer SF-268 cell line was determined; settings: Homo sapiens
# SF-295 = assay: Growth inhibitory activity against CNS cancer SF-295 cell line was determined; settings: Homo sapiens
# SF-539 = assay: Growth inhibitory activity against CNS cancer SF-539 cell line was determined; settings: Homo sapiens
# CCRF-CEM = assay: Growth inhibitory activity against Leukemia CCRF-CEM cell line was determined; settings: Homo sapiens
# SK-MEL-5 = assay: Growth inhibitory activity against Melanoma SK-MEL-5 cell line was determined; settings: Homo sapiens
# ACHN = assay: Growth inhibitory activity against Renal cancer ACHN cell line was determined; settings: Homo sapiens
# MDA-MB-435 = assay: Growth inhibitory activity against Breast cancer MDA-MB-435 cell line was determined; settings: Homo sapiens
# NCI/ADR-RES = assay: Growth inhibitory activity against Breast cancer NCI/ADR-RES cell line was determined; settings: Homo sapiens
# MDA-MB-231 = assay: Growth inhibitory activity against Breast cancer MDA-MB-231/ATCC cell line was determined; settings: Homo sapiens
# EKVX = assay: Growth inhibitory activity against non small cell lung cancer EKVX cell line was determined; settings: Homo sapiens
# NCI-H460 [5] = assay: Growth inhibitory activity against non small cell lung cancer H460 cell line was determined; settings: Homo sapiens
# NCI-H522 = assay: Growth inhibitory activity against non small cell lung cancer H522 cell line was determined; settings: Homo sapiens
# NCI-H23 = assay: Growth inhibitory activity against non small cell lung cancer NCI-H23 cell line was determined; settings: Homo sapiens
# NCI-H226 = assay: Growth inhibitory activity against non small cell lung cancer NCI-H226 cell line was determined; settings: Homo sapiens
# A549 = assay: Growth inhibitory activity against non small cell lung cancer A549/ATCC cells; settings: Homo sapiens
# NCI-H322M = assay: Growth inhibitory activity against non small cell lung cancer NCI-H322M cell line was determined; settings: Homo sapiens
# HOP-92 = assay: Growth inhibitory activity against non small cell lung cancer HOP-92 cell line was determined; settings: Homo sapiens
# UACC-257 = assay: Growth inhibitory activity against Melanoma UACC-257 cell line was determined; settings: Homo sapiens
# KM12 = assay: Growth inhibitory activity against colon cancer KM12 cell line was determined; settings: Homo sapiens
# MCF7 [6] = assay: Growth inhibitory activity against Breast cancer MCF-7 cell line was determined; settings: Homo sapiens
# HL-60 = assay: Growth inhibitory activity against Leukemia HL-60(TB) cell line was determined; settings: Homo sapiens
# RPMI-8226 = assay: Growth inhibitory activity against Leukemia RPMI-8226 cell line was determined; settings: Homo sapiens
# SR = assay: Growth inhibitory activity against Leukemia SR cell line was determined; settings: Homo sapiens
# 786-0 = assay: Growth inhibitory activity against Renal cancer 786-0 cell line was determined; settings: Homo sapiens
# SN12C = assay: Growth inhibitory activity against Renal cancer SN12C cell line was determined; settings: Homo sapiens
# TK-10 = assay: Growth inhibitory activity against Renal cancer TK-10 cell line was determined; settings: Homo sapiens
# CAKI-1 = assay: Growth inhibitory activity against Renal cancer CAKI-1 cell line was determined; settings: Homo sapiens
# HCT-15 = assay: Growth inhibitory activity against colon cancer HCT-15 cell line was determined; settings: Homo sapiens
# SW-620 = assay: Growth inhibitory activity against colon cancer SW-620 cell line was determined; settings: Homo sapiens
# BT-549 = assay: Growth inhibitory activity against Breast cancer BT-549 cell line was determined; settings: Homo sapiens
# PC-3 = assay: Growth inhibitory activity against Prostate cancer PC-3 cell line was determined; settings: Homo sapiens
# Hs-578T = assay: Growth inhibitory activity against Breast cancer HS 578T cell line was determined; settings: Homo sapiens
# HCC 2998 = assay: Growth inhibitory activity against colon cancer HCC2998 cell line was determined; settings: Homo sapiens
# OVCAR-3 = assay: Growth inhibitory activity against Ovarian cancer OVCAR-3 cell line was determined; settings: Homo sapiens
# OVCAR-5 = assay: Growth inhibitory activity against Ovarian cancer OVCAR-5 cell line was determined; settings: Homo sapiens
# OVCAR-8 = assay: Growth inhibitory activity against Ovarian cancer OVCAR-8 cell line was determined; settings: Homo sapiens
# DU-145 = assay: Growth inhibitory activity against Prostate cancer DU-145 cell line was determined; settings: Homo sapiens
smiles,measurement,setting,value
COC(=O)c1ccccc1Nc1ccnc(C(F)(F)F)c1,Proliferation,NCI-H460 [1],100%
same,Proliferation,SF-268 [2],103%
same,Proliferation,MCF7 [3],96%
COCCCNC(=O)c1ccccc1Nc1ccnc(C(F)(F)F)c1,Proliferation,NCI-H460 [1],105%
same,Proliferation,SF-268 [2],97%
same,Proliferation,MCF7 [3],70%
O=C(Nc1cccnc1)c1ccccc1Nc1ccnc(C(F)(F)F)c1,Proliferation,NCI-H460 [1],62%
same,Proliferation,SF-268 [2],98%
same,Proliferation,MCF7 [3],56%
O=C(Oc1ccc(Cl)cc1)c1ccccc1Nc1ccnc(C(F)(F)F)c1,GI50,M14,2.1 µM
same,GI50,K562,3.6 µM
same,GI50,MOLT-4,100 µM
same,GI50,UACC-62,2.6 µM
same,GI50,SF-268 [4],4.4 µM
same,GI50,SF-295,63 µM
same,GI50,SF-539,15 µM
same,GI50,CCRF-CEM,4.9 µM
same,GI50,SK-MEL-5,17 µM
same,GI50,ACHN,11 µM
same,GI50,MDA-MB-435,2.1 µM
same,GI50,NCI/ADR-RES,16 µM
same,GI50,MDA-MB-231,1.8 µM
same,GI50,EKVX,25 µM
same,GI50,NCI-H460 [5],10 µM
same,GI50,NCI-H522,4.3 µM
same,GI50,NCI-H23,2.8 µM
same,GI50,NCI-H226,2.9 µM
same,GI50,A549,15 µM
same,GI50,NCI-H322M,17 µM
same,GI50,HOP-92,21 µM
same,GI50,UACC-257,4.5 µM
same,Proliferation,NCI-H460 [1],9%
same,GI50,KM12,8.9 µM
same,GI50,MCF7 [6],3.7 µM
same,GI50,HL-60,6.4 µM
same,GI50,RPMI-8226,2.9 µM
same,GI50,SR,4 µM
same,GI50,786-0,2.7 µM
same,GI50,SN12C,3 µM
same,GI50,TK-10,18 µM
same,GI50,CAKI-1,2.3 µM
same,GI50,HCT-15,2.1 µM
same,GI50,SW-620,6.6 µM
same,GI50,BT-549,15 µM
same,GI50,PC-3,17 µM
same,GI50,Hs-578T,30 µM
same,GI50,HCC 2998,13 µM
same,GI50,OVCAR-3,11 µM
same,GI50,OVCAR-5,26 µM
same,GI50,OVCAR-8,4.1 µM
same,GI50,DU-145,19 µM
same,Proliferation,SF-268 [2],28%
same,Proliferation,MCF7 [3],24%
COc1ccc(OC(=O)c2ccccc2Nc2ccnc(C(F)(F)F)c2)cc1,Proliferation,NCI-H460 [1],49%
same,Proliferation,SF-268 [2],105%
same,Proliferation,MCF7 [3],74%
CCOC(=O)c1ccccc1Nc1ccnc(C(F)(F)F)c1,Proliferation,NCI-H460 [1],102%
same,Proliferation,SF-268 [2],103%
same,Proliferation,MCF7 [3],98%
O=C(Nc1ccccn1)c1ccccc1Nc1ccnc(C(F)(F)F)c1,Proliferation,NCI-H460 [1],86%
same,Proliferation,SF-268 [2],94%
same,Proliferation,MCF7 [3],66%
